From ChEMBL document CHEMBL4400577, “Fragment-based Discovery of a Small-Molecule Protein Kinase C-iota Inhibitor Binding Post-kinase Domain Residues” (ACS Med Chem Lett, 2019)
Values after ≈ are worked out from the molar mass of the structure shown.

Columns and labels:
Huh-7 = assay: Antiproliferative activity against human HuH7 cells assessed as cell growth inhibition measured after 72 hrs by CellTiter-Glo luminescent assay; type: functional; details: Huh-7, 72 h
[1] = target: T1, Protein kinase C iota type (Homo sapiens, UniProt P41743); assay: Inhibition of recombinant human full length N-terminal GST-fused PKCi (1 to 587 residues) expressed in baculovirus expression system using 5-FAM-RFARKGSLRQKNV as substrate measured after 60 mins by caliper microfluidic mobility shift assay
T1 sequence (P41743 whole entry): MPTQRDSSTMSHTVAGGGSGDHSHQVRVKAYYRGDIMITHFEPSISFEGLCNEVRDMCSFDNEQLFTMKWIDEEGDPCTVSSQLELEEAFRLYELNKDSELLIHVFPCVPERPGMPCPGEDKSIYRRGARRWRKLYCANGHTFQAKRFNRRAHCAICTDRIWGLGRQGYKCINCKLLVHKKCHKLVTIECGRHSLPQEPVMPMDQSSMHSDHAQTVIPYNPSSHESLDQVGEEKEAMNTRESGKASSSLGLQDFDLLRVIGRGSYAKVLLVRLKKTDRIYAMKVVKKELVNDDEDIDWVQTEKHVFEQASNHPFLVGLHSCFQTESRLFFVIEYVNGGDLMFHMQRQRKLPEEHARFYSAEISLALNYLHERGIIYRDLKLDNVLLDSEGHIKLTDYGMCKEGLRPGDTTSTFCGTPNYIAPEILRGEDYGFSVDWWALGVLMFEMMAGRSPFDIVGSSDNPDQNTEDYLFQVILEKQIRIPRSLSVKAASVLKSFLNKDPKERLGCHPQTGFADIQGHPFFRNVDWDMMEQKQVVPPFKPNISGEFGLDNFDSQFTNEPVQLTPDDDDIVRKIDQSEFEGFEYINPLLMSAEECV

[2] = Clearance in human liver microsomes; type: ADME, Microsome; details: read-out: CLH
[3] = Solubility of the compound at pH 7.4; type: physicochemical; details: buffer
[4] = Clearance in mouse liver microsomes; type: ADME, Microsome; details: read-out: CLH
[5] = Permeability across apical to basolateral side in human Caco2 cells; type: ADME, cell-based; details: Caco-2

Compound	IC50 [1]	other results
N[C@H](CNc1nc(-c2ccncc2)nc2sc3c(c12)CCCC3)Cc1ccccc1	–	GI50 (Huh-7): 3.1 µM
Nc1ncc(-c2ccccc2)cc1C(=O)Nc1ccncc1	32 µM	–
NCc1cccc(-c2cnc(N)c(C(=O)Nc3ccncc3)c2)c1	0.71 µM	–
Cc1cc(NC(=O)c2nccnc2N)cc(C)n1	263 µM	–
NC(=O)c1cccc(-c2cnc(N)c(C(=O)Nc3ccncc3)c2)c1	> 384 µM	–
Nc1nccnc1C(=O)Nc1ccnc2[nH]ccc12	> 384 µM	–
Nc1nccnc1C(=O)NCc1ccncc1	> 384 µM	–
Nc1nccnc1C(=O)Nc1ccncc1Br	> 384 µM	–
Nc1ncc(-c2cccc(N3CCNCC3)c2)cc1C(=O)Nc1ccncc1	0.34 µM	microsomal CLint [2]: 5.1 µL/min/mg; solubility [3]: 164 µg/mL (≈ 438 µM); microsomal CLint [4]: 71 µL/min/mg; GI50 (Huh-7): 11.3 µM; Papp A→B [5]: 0.28 ×10⁻⁶ cm/s
Nc1ncc(-c2cccc(N3CCNCC3)c2)nc1C(=O)Nc1ccncc1	0.27 µM	–
CCc1cc(NC(=O)c2nccnc2N)ccn1	19.6 µM	–
Nc1ncccc1C(=O)Nc1ccncc1	22 µM	–
CC(C)(C)c1cc(NC(=O)c2nccnc2N)ccn1	24 µM	–
Nc1ncc(Br)cc1C(=O)Nc1ccncc1	> 384 µM	–

Continued, in another order:

IC50 [1]	Compound	other results
76 µM	Nc1nccnc1C(=O)Nc1ccc(O)cc1	–
23 µM	Nc1nccnc1C(=O)Nc1ccncc1	–
42.2 µM	Nc1nccnc1C(=O)Nc1cccc(C2CC2)c1	–
77 µM	Nc1nccnc1C(=O)Nc1cccnc1	–
> 384 µM	Nc1nccnc1C(=O)Nc1ccnc(Br)c1	–
34 µM	Nc1nccnc1C(=O)Nc1ccc2[nH]ccc2c1	–
